Measured values: patent US20100227826A1, “Stable Flavonoid Solutions” (priority 2005, published 2010)

Experiments:
tyrosinase = biological target: T1, tyrosinase (Homo sapiens, UniProt P14679); assay: Tyrosinase activity in living skin explant sections (L-DOPA method of Laidlaw and Blackberg); type: cell-based; conditions: non-irradiated skin explants, topical gel 2 mg/cm^2, Day 5
T1 construct: Where tyrosinase is active, L-DOPA is oxidized, producing an observable black pigment in the melanocytes; from tissue; host or cells: living abdominal skin explants (melanocytes)
T1 sequence (P14679 19-529): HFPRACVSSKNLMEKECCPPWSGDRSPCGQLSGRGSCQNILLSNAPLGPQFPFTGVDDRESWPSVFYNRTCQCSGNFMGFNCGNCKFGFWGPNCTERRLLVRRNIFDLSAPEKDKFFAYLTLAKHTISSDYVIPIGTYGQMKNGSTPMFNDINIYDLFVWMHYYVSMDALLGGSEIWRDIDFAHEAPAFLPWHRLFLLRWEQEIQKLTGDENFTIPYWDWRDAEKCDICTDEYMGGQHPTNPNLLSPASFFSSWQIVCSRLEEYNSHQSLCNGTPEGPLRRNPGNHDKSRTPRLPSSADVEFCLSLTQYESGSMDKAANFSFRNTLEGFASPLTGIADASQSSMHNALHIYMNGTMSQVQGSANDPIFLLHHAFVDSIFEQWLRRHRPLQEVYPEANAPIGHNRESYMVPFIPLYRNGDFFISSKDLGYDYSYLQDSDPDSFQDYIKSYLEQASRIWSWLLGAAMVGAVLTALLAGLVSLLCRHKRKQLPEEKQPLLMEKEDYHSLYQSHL

[1] = tested on: melanin within the melanocytes; assay: Melanin deposits in melanocytes of skin explants, Fontana-Masson silver stain; type: cell-based, human; conditions: Day 5
Experimental: (§1) Skin samples from an abdominal plastic surgery patient are placed in a specific explant survival medium BEM from Centre de Recherche Laboratoire BIO-EC (Clamart, France). Once daily, the living skin explants are irradiated with a Vilber Lourmat solar simulator RMX3W (Marne-la-Vallee, France) at a dose of 75 mJ/cm^2 within a wavelength range of 290-330 nm and a peak of 312 nm (UVB) for 80 seconds.
(§2) Five minutes following irradiation, the skin samples are treated with a topical application of 2 mg/cm^2 of a gel formulation comprising the Phytocytol™ BLM, a stable flavonoid solution according to the present invention. The gel formulation is made according to the following procedure: Three separate gels, each containing one of baicalin, luteolin and myricetin, are prepared according to the same procedure. In a main beaker, add DI Water, Germall Plus and Carbopol Ultrez-10. When Carbopol is dispersed add ¼ of the indicated amount of Neutrol TE. Add Polycast-3 and continue mixing. Add the flavonoid solution (A, B and C) until homogenous. Add the remaining Neutrol TE and mix. The resulting Baicalin Gel, Luteolin Gel and Myricetin Gel are mixed in equal parts to form a gel having a pH of 6.91 and a viscosity of 30,500 cps (LV4@12 rpm). […]

melanocyte dendricity = assay: Melanocyte dendricity in skin explant cryostat sections, Anti-Melan-A immunofluorescence; type: cell-based, human; conditions: Day 5
Experimental: as §1, §2

OC[C@H]1O[C@@H](Oc2ccc(O)cc2)[C@H](O)[C@@H](O)[C@@H]1O [arbutin]
level of tyrosinase activity (tyrosinase): substantially greater compared to the arbutin-treated samples
melanin deposits ([1]; absence of UVB irradiation): low levels of melanin deposits
melanin deposits ([1]; after exposure to UVB irradiation): An increase in melanin deposits is not observed
level of melanocyte dendricity (melanocyte dendricity; after UVB irradiation, skin explants): low level of dendricity
level of melanocyte dendricity (melanocyte dendricity; non-UVB irradiated skin explants): low level of dendricity
